Measured values taken from patent publication US7446199B2, “Compositions useful as inhibitors of protein kinases” (Vertex Pharmaceuticals Incorporated, priority 2003, dated 2008).

Legend:
Assay type in all cases: biochemical
c-Met = c-Met (Homo sapiens, UniProt P08581); assay: Ki determination for the inhibition of c-Met, coupled enzyme system; details: 200 μM ATP, 10 μM polyGluTyr, 80 nM c-Met, 30° C.
Method: Compounds were screened for their ability to inhibit c-Met kinase activity using a standard coupled enzyme system (Fox et al., Protein Sci. 1998, 7, 2249). Reactions were carried out in a solution containing 100 mM HEPES (pH 7.5), 10 mM MgCl2, 25 mM NaCl, 300 μM NADH, 1 mM DTT, and 1.5% DMSO. Final substrate concentrations in the assay were 200 μM ATP (Sigma Chemicals, St Louis, Mo.) and 10 μM polyGluTyr (Sigma Chemical Company, St. Louis). Reactions were carried out at 30° C. and 80 nM c-Met. Final concentrations of the components of the coupled enzyme system were 2.5 mM phosphoenolpyruvate, 300 μM NADH, 30 μg/ml pyruvate kinase and 10 μg/ml lactate dehydrogenase.
An assay stock buffer solution was prepared containing all of the reagents listed above with the exception of ATP and a test compound of the present invention. The assay stock buffer solution (175 μl) was incubated in a 96 well plate with 5 μl of the test compound of the present invention at final concentrations spanning 0.006 μM to 12.5 μM at 30° C. for 10 minutes. Typically, a 12-point titration was conducted by preparing serial dilutions (from 10 mM compound stocks) with DMSO of the test compounds of the present invention in daughter plates. The reaction was initiated by the addition of 20 μl of ATP (final concentration 200 μM). Rates of reaction were obtained using a Molecular Devices Spectramax plate reader (Sunnyvale, Calif.) over 10 minutes at 30° C. The Ki values were determined from the rate data as a function of inhibitor concentration.

KDR = KDR (Homo sapiens, UniProt P35968); assay: KDR enzyme assay, coupled enzyme assay; details: 300 μM ATP, 10 μM poly E4Y, 30 nM KDR, 37° C.
Method: Compounds were screened for their ability to inhibit KDR using a standard coupled enzyme assay (Fox et al., Protein Sci., (1998) 7, 2249). Assays were carried out in a mixture of 200 mM HEPES 7.5, 10 mM MgCl2, 25 mM NaCl, 1 mM DTT and 1.5% DMSO. Final substrate concentrations in the assay were 300 μM ATP (Sigma Chemicals) and 10 μM poly E4Y (Sigma). Assays were carried out at 37° C. and 30 nM KDR. Final concentrations of the components of the coupled enzyme system were 2.5 mM phosphoenolpyruvate, 200 μM NADH, 30 μg/ML pyruvate kinase and 10 μg/ml lactate dehydrogenase.
An assay stock buffer solution was prepared containing all of the reagents listed above, with the exception of ATP and the test compound of interest. 177 μl of the stock solution was placed in a 96 well plate followed by addition of 3 μl of 2 mM DMSO stock containing the test compound (final compound concentration 30 μM). The plate was preincubated for about 10 minutes at 37° C. and the reaction initiated by addition of 20 μl of ATP (final concentration 300 μM). Rates of reaction were obtained using a Molecular Devices plate reader (Sunnyvale, Calif.) over a 5 minute read time at 37° C.

JAK3 = molecular target: T1, JAK3 (Homo sapiens, UniProt P52333); assay: JAK3 inhibition assay (ELISA, Poly (Glu, Ala, Tyr) coated plates); details: 2 mM ATP, 60 minutes at 30° C.
T1 sequence (P52333 1-1124): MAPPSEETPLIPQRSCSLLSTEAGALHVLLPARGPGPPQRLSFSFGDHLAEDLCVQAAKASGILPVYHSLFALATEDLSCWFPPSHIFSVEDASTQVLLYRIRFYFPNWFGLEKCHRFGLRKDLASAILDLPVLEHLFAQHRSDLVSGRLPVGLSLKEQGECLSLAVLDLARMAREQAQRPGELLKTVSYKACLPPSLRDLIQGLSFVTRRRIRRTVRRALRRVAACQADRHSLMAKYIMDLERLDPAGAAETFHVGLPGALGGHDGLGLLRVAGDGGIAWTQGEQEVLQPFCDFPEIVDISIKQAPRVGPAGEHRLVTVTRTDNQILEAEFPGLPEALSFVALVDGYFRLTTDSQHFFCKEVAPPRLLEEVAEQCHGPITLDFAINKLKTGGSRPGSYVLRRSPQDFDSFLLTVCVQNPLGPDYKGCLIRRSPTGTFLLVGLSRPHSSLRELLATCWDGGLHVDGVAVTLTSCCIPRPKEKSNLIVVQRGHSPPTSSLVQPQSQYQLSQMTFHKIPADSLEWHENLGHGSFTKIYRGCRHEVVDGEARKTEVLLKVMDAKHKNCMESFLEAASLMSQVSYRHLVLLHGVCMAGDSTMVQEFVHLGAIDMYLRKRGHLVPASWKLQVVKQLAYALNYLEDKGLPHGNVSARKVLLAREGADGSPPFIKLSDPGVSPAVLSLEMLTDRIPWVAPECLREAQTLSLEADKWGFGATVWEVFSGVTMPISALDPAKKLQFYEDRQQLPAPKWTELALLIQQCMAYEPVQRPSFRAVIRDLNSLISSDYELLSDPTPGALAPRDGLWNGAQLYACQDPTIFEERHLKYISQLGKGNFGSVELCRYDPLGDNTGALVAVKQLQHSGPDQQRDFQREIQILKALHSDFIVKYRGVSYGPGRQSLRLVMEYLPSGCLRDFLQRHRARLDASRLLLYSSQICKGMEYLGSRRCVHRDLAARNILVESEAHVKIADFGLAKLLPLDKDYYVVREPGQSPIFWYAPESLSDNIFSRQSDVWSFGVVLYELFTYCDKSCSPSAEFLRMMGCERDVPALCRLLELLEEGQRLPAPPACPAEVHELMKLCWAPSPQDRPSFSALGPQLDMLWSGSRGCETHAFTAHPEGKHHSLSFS
Method: Compound inhibition of JAK3 was assayed by the method described by G. R. Brown, et al., Bioorg. Med. Chem. Lett. 2000, vol. 10, pp 575-579 in the following manner. Into Maxisorb plates, previously coated at 4° C. with Poly (Glu, Ala, Tyr) 6:3:1 then washed with phosphate buffered saline 0.05% and Tween (PBST), was added 2 mM ATP, 5 mM MgCl2, and a solution of compound in DMSO. The reaction was started with JAK enzyme and the plates incubated for 60 minutes at 30° C. The plates were then washed with PBST, […] HRP-Conjugated 4G10 antibody was added, and the plate incubated for 90 minutes at 30° C. The plate was again washed with PBST, […] TMB solution is added, and the plates were incubated for another 30 minutes at 30° C. Sulfuric acid ([…] of 1M) was added to stop the reaction and the plate is read at 450 nm to obtain the optical densities for analysis to determine IC50 values.

GSK-3β, (AA 1-420) = GSK-3β, (AA 1-420) (Homo sapiens, UniProt P49841); assay: GSK-3 inhibition assay, coupled enzyme system; details: 20 μM ATP, 300 μM peptide, 20 nM GSK-3b, 30° C.; read-out: Ki values (GSK3)
Method: Compounds of the present invention were screened for their ability to inhibit GSK-3β, (AA 1-420) activity using a standard coupled enzyme system (Fox et al., Protein Sci. 1998, 7, 2249). Reactions were carried out in a solution containing 100 mM HEPES (pH 7.5), 10 mM MgCl2, 25 mM NaCl, 300 μM NADH, 1 mM DTT and 1.5% DMSO. Final substrate concentrations in the assay were 20 μM ATP (Sigma Chemicals, St Louis, Mo.) and 300 μM peptide (American Peptide, Sunnyvale, Calif.). Reactions were carried out at 30° C. and 20 nM GSK-3b. Final concentrations of the components of the coupled enzyme system were 2.5 mM phosphoenolpyruvate, 300 μM NADH, 30 μg/ml pyruvate kinase and 10 μg/ml lactate dehydrogenase.
An assay stock buffer solution was prepared containing all of the reagents listed above with the exception of ATP and the test compound of the present invention. The assay stock buffer solution (175 μl) was incubated in a 96 well plate with 5 μl of the test compound of the present invention at final concentrations spanning 0.002 μM to 30 μM at 30° C. for 10 min. Typically, a 12 point titration was conducted by preparing serial dilutions (from 10 mM compound stocks) with DMSO of the test compounds of the present invention in daughter plates. The reaction was initiated by the addition of 20 μl of ATP (final concentration 20 μM). Rates of reaction were obtained using a Molecular Devices Spectramax plate reader (Sunnyvale, Calif.) over 10 min at 30° C. The Ki values were determined from the rate data as a function of inhibitor concentration.

Chain of GSK-3β, (AA 1-420) (P49841 whole entry, the tested form may be a part): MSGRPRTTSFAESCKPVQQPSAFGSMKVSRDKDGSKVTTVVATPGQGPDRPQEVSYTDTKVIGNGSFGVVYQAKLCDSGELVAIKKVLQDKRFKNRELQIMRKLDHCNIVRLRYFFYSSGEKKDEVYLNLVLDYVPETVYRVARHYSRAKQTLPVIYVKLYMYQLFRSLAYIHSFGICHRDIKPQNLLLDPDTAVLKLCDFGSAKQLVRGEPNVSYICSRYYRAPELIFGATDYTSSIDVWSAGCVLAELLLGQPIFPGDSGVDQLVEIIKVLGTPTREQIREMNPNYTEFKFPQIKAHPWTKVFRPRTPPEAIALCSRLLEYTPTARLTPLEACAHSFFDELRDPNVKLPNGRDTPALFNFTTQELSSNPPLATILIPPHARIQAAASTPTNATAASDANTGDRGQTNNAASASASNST
Chain of c-Met (P08581 25-1390): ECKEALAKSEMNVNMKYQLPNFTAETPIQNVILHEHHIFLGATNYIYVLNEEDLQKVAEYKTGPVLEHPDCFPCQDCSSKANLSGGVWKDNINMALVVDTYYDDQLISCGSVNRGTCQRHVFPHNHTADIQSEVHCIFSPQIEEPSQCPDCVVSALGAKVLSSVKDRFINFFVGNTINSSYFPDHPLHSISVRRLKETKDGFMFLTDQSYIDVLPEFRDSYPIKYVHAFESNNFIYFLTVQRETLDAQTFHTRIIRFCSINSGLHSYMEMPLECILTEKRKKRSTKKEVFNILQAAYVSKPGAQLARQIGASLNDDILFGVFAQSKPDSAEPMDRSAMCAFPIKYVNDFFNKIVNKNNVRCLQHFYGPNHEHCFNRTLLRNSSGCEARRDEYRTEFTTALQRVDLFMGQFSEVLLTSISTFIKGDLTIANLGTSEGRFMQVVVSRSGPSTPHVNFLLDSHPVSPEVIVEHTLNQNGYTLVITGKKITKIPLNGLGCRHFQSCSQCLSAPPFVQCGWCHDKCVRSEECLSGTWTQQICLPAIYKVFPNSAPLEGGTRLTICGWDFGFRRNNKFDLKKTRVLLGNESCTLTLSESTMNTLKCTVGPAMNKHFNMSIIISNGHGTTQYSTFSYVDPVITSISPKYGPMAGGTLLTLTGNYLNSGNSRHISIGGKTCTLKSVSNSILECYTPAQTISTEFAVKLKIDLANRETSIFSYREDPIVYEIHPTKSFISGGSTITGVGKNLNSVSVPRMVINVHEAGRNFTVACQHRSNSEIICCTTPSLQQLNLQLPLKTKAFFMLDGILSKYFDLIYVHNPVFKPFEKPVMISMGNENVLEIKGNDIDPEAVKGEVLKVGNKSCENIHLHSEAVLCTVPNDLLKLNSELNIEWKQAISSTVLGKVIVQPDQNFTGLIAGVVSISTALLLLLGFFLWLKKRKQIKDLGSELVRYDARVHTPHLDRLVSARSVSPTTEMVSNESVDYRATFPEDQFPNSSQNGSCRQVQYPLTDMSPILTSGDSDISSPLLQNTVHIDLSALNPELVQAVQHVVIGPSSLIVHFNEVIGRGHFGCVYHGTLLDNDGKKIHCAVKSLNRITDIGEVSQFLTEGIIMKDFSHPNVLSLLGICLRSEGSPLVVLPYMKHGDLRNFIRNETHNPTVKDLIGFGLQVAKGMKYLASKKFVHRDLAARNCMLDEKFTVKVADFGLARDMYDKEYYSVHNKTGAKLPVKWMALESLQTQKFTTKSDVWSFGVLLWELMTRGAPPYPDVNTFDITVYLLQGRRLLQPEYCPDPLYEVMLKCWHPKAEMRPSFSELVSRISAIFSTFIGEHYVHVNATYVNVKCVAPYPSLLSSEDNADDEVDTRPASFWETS
Chain of KDR (P35968 20-1356): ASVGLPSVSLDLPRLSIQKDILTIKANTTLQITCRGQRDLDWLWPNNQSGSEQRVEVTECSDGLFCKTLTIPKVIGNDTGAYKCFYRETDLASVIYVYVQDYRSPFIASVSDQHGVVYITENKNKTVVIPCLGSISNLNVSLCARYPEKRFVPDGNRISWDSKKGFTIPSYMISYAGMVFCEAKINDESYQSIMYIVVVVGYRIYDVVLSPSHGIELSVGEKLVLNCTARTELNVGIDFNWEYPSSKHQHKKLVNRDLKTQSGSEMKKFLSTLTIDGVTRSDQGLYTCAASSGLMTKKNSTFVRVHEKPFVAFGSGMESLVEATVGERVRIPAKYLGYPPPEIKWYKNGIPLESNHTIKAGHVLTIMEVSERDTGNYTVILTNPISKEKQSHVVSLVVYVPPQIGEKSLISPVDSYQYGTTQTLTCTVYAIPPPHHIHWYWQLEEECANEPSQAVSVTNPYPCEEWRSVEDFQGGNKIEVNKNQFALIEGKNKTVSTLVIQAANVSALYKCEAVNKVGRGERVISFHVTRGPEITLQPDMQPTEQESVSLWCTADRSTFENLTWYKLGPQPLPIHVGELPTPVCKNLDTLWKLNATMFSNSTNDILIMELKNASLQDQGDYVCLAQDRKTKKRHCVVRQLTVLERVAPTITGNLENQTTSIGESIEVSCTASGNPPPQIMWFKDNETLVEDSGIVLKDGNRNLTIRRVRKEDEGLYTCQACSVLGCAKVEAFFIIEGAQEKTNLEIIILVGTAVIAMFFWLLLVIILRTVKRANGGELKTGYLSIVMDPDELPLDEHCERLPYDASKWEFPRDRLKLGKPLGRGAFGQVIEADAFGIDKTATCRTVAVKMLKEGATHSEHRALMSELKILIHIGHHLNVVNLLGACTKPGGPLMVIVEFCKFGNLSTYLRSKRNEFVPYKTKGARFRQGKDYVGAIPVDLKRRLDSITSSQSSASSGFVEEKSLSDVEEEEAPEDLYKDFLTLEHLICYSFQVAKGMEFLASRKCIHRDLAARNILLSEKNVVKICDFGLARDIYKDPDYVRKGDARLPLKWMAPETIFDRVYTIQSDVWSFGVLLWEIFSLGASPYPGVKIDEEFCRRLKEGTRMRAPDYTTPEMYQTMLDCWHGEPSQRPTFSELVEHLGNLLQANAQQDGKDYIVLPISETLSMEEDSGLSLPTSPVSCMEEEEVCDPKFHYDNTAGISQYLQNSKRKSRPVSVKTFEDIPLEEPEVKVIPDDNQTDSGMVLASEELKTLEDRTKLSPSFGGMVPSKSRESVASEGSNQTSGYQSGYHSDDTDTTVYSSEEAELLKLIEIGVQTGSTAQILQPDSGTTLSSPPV

| SMILES | Ki (c-Met) [µM] | Ki (KDR) [µM] | Ki (JAK3) [µM] | Ki (GSK-3β, (AA 1-420)) [µM] |
| --- | --- | --- | --- | --- |
| Fc1cccc(-n2cnnc2-c2c[nH]c3ncccc23)c1F [Compound 107, 3-[4-(2,3-Difluoro-phenyl)-4H-[1,2,4]triazol-3-yl]-1H-pyrrolo[2,3-b]pyridine] | 1 to 12.5 |  |  |  |
| COc1cccc(-c2cnoc2-c2c[nH]c3ncccc23)c1OC [Compound 51, 3-[4-(2,3-Dimethoxy-phenyl)-isoxazol-5-yl]-1H-pyrrolo[2,3-b]pyridine] | 1 to 12.5 | 1 to 12.5 | 0.2 to 1 |  |
| O=c1c2[nH]cc(-c3oncc3-c3cccc(F)c3F)c2ccn1Cc1ccccc1 [Compound 147, 6-Benzyl-3-[4-(2,3-difluoro-phenyl)-isoxazol-5-yl]-1,6-dihydro-pyrrolo[2,3-c]pyridin-7-one] | 1 to 12.5 |  |  |  |
| Fc1cccc(-c2cnoc2-c2n[nH]c3ncc(Br)cc23)c1F [Compound 148] | 0.2 to 1 | 0.2 to 1 |  | 1 to 12.5 |
| c1cncc(-c2cnoc2-c2c[nH]c3ncccc23)c1 [Compound 52, 3-(4-Pyridin-3-yl-isoxazol-5-yl)-1H-pyrrolo[2,3-b]pyridine] | 1 to 12.5 |  | 1 to 12.5 | 1 to 12.5 |
| c1ccc(-c2cnoc2-c2c[nH]c3ncccc23)nc1 [Compound 50, 3-(4-Pyridin-2-yl-isoxazol-5-yl)-1H-pyrrolo[2,3-b]pyridine] |  |  | 1 to 12.5 |  |
| Fc1cccc(-n2nnnc2-c2c[nH]c3ncccc23)c1F [Compound 11, 3-[1-(2,3-Difluoro-phenyl)-1H-tetrazol-5-yl]-1H-pyrrolo [2,3-b]pyridine] | 1 to 12.5 |  |  |  |

Second part, the molecule after the results:

| Ki (c-Met) [µM] | Ki (KDR) [µM] | Ki (JAK3) [µM] | Ki (GSK-3β, (AA 1-420)) [µM] | SMILES |
| --- | --- | --- | --- | --- |
| 1 to 12.5 |  |  |  | CCNc1ccc2c(-c3oncc3-c3cccc(F)c3F)n[nH]c2n1 [Compound 30, {3-[4-(2,3-Difluoro-phenyl)-isoxazol-5-yl]-1H-pyrazolo[3,4-b]pyridin-6-yl}-ethyl-amine] |
| 1 to 12.5 |  |  | 1 to 12.5 | [O-][n+]1cccc2c(-c3oncc3-c3cccc(F)c3F)c[nH]c21 [Compound 151] |
| 1 to 12.5 |  |  |  | Fc1cccc(-c2cnoc2-c2c[nH]c3nc(Cl)ccc23)c1F [Compound 101, 6-Chloro-3-[4-(2,3-difluoro-phenyl)-isoxazol-5-yl]-1H-pyrrolo[2,3-b]pyridine] |
| 1 to 12.5 |  |  |  | COC(=O)Cn1ccc2c(-c3oncc3-c3cccc(F)c3F)c[nH]c2c1=O [Compound 146, {3-[4-(2,3-Difluoro-phenyl)-isoxazol-5-yl]-7-oxo-1,7-di hydro-pyrrolo[2,3-c]pyridin-6-yl}-acetic acid methyl ester] |
| < 0.2 | < 0.2 |  | 0.2 to 1 | N#Cc1ccc(-c2cnc3[nH]cc(-c4oncc4-c4cccc(F)c4F)c3c2)cc1 [Compound 89, 4-{3-[4-(2,3-Difluoro-phenyl)-isoxazol-5-yl]-1H-pyrrolo [2,3-b]pyridin-5-yl}-benzonitrile] |
| 1 to 12.5 |  |  |  | Fc1cccc(-c2cnoc2-c2c[nH]c3nc(N4CCCC4)ccc23)c1F [Compound 100, 3-[4-(2,3-Difluoro-phenyl)-isoxazol-5-yl]-6-pyrrolidin-1-yl-1H-pyrrolo[2,3-b]pyridine] |
| 1 to 12.5 |  |  |  | CN(C)c1ccc2c(-c3oncc3-c3cccc(F)c3F)n[nH]c2n1 [Compound 32] |
|  |  |  | 1 to 12.5 | Fc1cccc(-c2cnoc2-c2c[nH]c3c(F)cccc23)c1F [Compound 33, 3-[4-(2,3-Difluoro-phenyl)-isoxazol-5-yl]-7-fluoro-1H-indole] |
